Experimental data reported in PubChem BioAssay (NCI).
Several values for one entry are separate records, joined by “and”; a condition that tells them apart may be missing. Identical values can stand only once.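 Results reflect a 48-hour exposure of cells in 96-well plates to compound at five concentrations. GI50 = concentration required for 50% inhibition of growth. The concentration for full growth arrest is given as TGI.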

Key:
Assay in all cases: growth of human tumour cells (NCI), 48 h
HOP-62 NSCLC = tested on: HOP-62 NSCLC
HS 578T breast = tested on: HS 578T breast
M14 melanoma = tested on: M14 melanoma
MALME-3M melanoma = tested on: MALME-3M melanoma
NCI-H460 lung = tested on: NCI-H460 lung
OVCAR-5 ovarian = tested on: OVCAR-5 ovarian
SF-295 CNS = tested on: SF-295 CNS
T-47D breast = tested on: T-47D breast
UO-31 renal = tested on: UO-31 renal
EKVX NSCLC = tested on: EKVX NSCLC

Row | Structure (SMILES) | GI50 (HOP-62 NSCLC) | TGI (HOP-62 NSCLC) [µM] | GI50 (HS 578T breast) | TGI (HS 578T breast) [µM] | GI50 (M14 melanoma) | TGI (M14 melanoma) [µM] | GI50 (MALME-3M melanoma) [µM] | TGI (MALME-3M melanoma) [µM] | GI50 (NCI-H460 lung) | TGI (NCI-H460 lung) [µM] | GI50 (OVCAR-5 ovarian) | TGI (OVCAR-5 ovarian) [µM] | GI50 (SF-295 CNS) | TGI (SF-295 CNS) | GI50 (T-47D breast) [µM] | TGI (T-47D breast) [µM] | GI50 (UO-31 renal) | TGI (UO-31 renal) [µM] | GI50 (EKVX NSCLC) | TGI (EKVX NSCLC) [µM]
1 | COC(=O)c1ccc(NC(=O)Oc2ccc(N(CCCl)CCCl)cc2)cc1 | 3.99 µM | 24.8 | 18.8 µM | 97.9 | 5.97 µM | > 100 | 18.4 | 71.1 | 0.386 µM | 14.9 | 30.8 µM | > 100 | 1.38 µM | 11.4 µM | 2.87 | 50.8 | 4.86 µM | 29.7 |  | 
2 | CN(CCCNC(=O)CCOCCOCCOCCNC(=O)Cc1ccc2ccc3cccc4ccc1c2c34)CCCNc1cc(-c2ccc3ccccc3c2)nc2ccccc12 | 0.593 µM | 1.12 | 1.59 µM | 11.5 | 0.591 µM | 1.14 |  |  | 0.52 µM | 1.02 | 0.635 µM | 1.18 | 1.57 µM | 3.75 µM | 0.654 | 1.34 | 5.1 µM | 13.6 | 0.48 µM | 0.959
3 | CC(=O)O[C@H]1CC[C@@]2(C)C(=CC[C@@H]3C2CC[C@]2(C)Nc4nc5ccccc5cc4CC32)C1 (stereo partly specified) |  | 26.7 |  |  |  | 5.03 |  | 21.7 |  | 17.5 |  | 26.9 |  | 13.9 µM |  |  |  | 16.9 |  | 18.8
4 | C=CCc1cc(OC)c2c(c1)C(OC)CC(c1ccc(OC)c(OC)c1)O2 (stereo unspecified) |  | > 100 |  |  |  | > 100 |  | > 100 |  | > 100 |  | > 100 |  | > 100 µM |  |  |  | > 100 |  | > 100
5 | CCOc1ccc(NC(=O)CC2C(=O)Nc3ccccc3S2(=O)=O)cc1 (stereo unspecified) |  | > 100 |  |  |  |  |  | > 100 |  | > 100 |  | > 100 |  | > 100 µM |  |  |  | > 100 |  | > 100
6 | Cn1nc(-c2ccccc2)c2c(/C=C/c3ccccc3)onc2c1=O |  | > 100 |  |  |  | > 100 |  | > 100 |  | > 100 |  | > 100 |  | > 100 µM |  |  |  | > 100 |  | > 100
7 | CCCCCCCCCCCC[n+]1ccc2ccccc2c1 | 1.48 µM | 3.01 | 1.54 µM | 3.88 | 0.588 µM | 2.79 |  |  | 1.69 µM | 3.27 | 1.34 µM | 3.74 | 0.882 µM | 2.74 µM | 0.406 | 5.26 | 1.19 µM | 3.23 | 0.4 µM | 1.77
8 | CC1(c2ccc(Cl)cc2)C2C(=O)NC(=O)C1C(=O)NC2=O (stereo unspecified) |  | > 100 |  |  |  | > 100 |  | > 100 |  | > 100 |  | > 100 |  | > 100 µM |  |  |  | > 100 |  | > 100
9 | C=C1C(=O)OC2/C=C(/C)C(OC(C)=O)C/C=C(\C)C(OC(=O)C3(C)OC3C)C(O)C12 (stereo unspecified) |  | > 100 |  | > 100 |  | > 100 |  |  |  | > 100 |  | > 100 |  | > 100 µM |  | > 100 |  |  |  | > 100
10 | Brc1ccc2ns[s+]c2c1 |  | > 31.6 |  |  |  | 5.88 |  | > 86 |  | > 100 |  | > 100 |  | > 100 µM |  |  |  | > 30.7 |  | > 100
11 | CC(=O)OC1COC(n2c(=S)n(-c3ccccc3)c(=O)c3ccccc32)C(OC(C)=O)C1OC(C)=O (stereo unspecified) |  | > 100 |  |  |  | > 100 |  | > 100 |  | > 100 |  | > 100 |  | 85.7 µM |  |  |  | > 100 |  | > 100
12 | CC[C@H](C)[C@H](NC(=O)[C@H]1CCCCN1C)C(=O)N(C)[C@H](C[C@@H](OC(C)=O)c1nc(C(=O)N[C@@H](Cc2ccccc2)C[C@H](C)C(=O)O)cs1)C(C)C | 0.000909 µM and 0.00165 µM | > 16.5 | 0.00101 µM and 0.00165 µM | > 16.5 | 0.000337 µM and < 0.00165 µM | < 0.00165 |  |  | 0.000369 µM and 0.00165 µM | > 16.5 | 0.00324 µM and 0.00165 µM | > 16.5 | 0.000305 µM and < 0.00165 µM | 0.00282 µM and < 0.00165 µM | > 16.5 | > 16.5 | 0.00788 µM and 0.00165 µM | > 16.5 | 0.000979 µM and 0.00165 µM | > 16.5
13 | CCN1CCN(C(=O)[C@]23CCC(C)(C)C[C@@H]2C2=CC[C@@H]4[C@@]5(C)C/C(=C/c6ccncc6)C(=O)C(C)(C)[C@@H]5CC[C@@]4(C)[C@]2(C)CC3)CC1 | 1.72 µM | 3.3 | 1.58 µM | 4.16 | 1.54 µM | 3.17 | 1.65 | 3.14 | 1.28 µM | 2.7 | 1.66 µM | 3.15 | 1.43 µM | 2.76 µM |  |  | 1.24 µM | 2.5 | 1.49 µM | 3.01
14 | N=c1c2c(=N)n3c(nc2nc2n1-c1ccccc1Sc1ccccc1-2)sc1cc(Cl)ccc13 | 5.87 µM | 24.1 | 1.78 µM | 7.01 | 4.11 µM | > 100 |  |  | 1.77 µM | 10.3 | 7.55 µM | 38.9 | 1.82 µM | 9.52 µM | 2.41 | 9.5 | 1.29 µM | 7.68 | 1.24 µM | 7.46
15 | CCOC(=O)C1(C)CCCCC(=O)N1 (stereo unspecified) |  | > 100 |  |  |  | > 100 |  | > 100 |  | > 100 |  |  |  | > 100 µM |  |  |  | > 100 |  | > 100
16 | CC(=O)C1=C(O)C2C3c4c[nH]c5cccc(c45)CC3C(C)(C)N2C1=O (stereo unspecified) |  | 22.4 |  |  |  | > 100 |  | > 100 |  | 31.8 |  | > 100 |  | > 100 µM |  |  |  | 81.6 |  | > 100
17 | O=C(Nc1nc2c(ncn2C2OC(CO)C(O)C2O)c(=O)[nH]1)c1ccccc1 (stereo unspecified) |  | > 100 |  |  |  | > 100 |  | > 100 |  | > 100 |  | > 100 |  | > 100 µM |  |  |  | > 100 |  | > 100
18 | CCCCCCC[CH2][Sn]1([CH2]CCCCCCC)[O]C(=O)c2cccnc2[O]1 |  |  |  |  | > 100 µM | > 100 | > 100 | > 100 | > 100 µM | > 100 | > 100 µM | > 100 | > 100 µM | > 100 µM |  |  | > 100 µM | > 100 | > 100 µM | > 100
19 | c1ccc2c(c1)cc1n2CC2CN=NC12 (stereo unspecified) |  | > 100 |  |  |  | > 100 |  | > 100 |  | > 100 |  | > 100 |  | > 100 µM |  |  |  | > 100 |  | > 100
20 | CC(SC(=O)Nc1ccc(N=Nc2ccccc2)cc1)C(=O)O (stereo unspecified) |  | > 100 |  |  |  | > 100 |  |  |  | > 100 |  | > 100 |  | > 100 µM |  |  |  | > 100 |  | > 100
21 | COc1cc(CCc2ccc(N)cc2)cc(OC)c1OC |  | > 100 |  |  |  | > 100 |  | > 80 |  | > 100 |  | > 100 |  | > 61.6 µM |  |  |  | > 93.1 |  | > 100
22 | COc1ccc(/C(C#N)=C2C=C/C(=N/O)c3ccccc3\2)cc1 | 0.376 µM | 16 | 0.258 µM | 6.33 | 0.228 µM | 2.01 |  |  | 0.31 µM | 1.23 | 2.96 µM | 16.5 | 0.687 µM | 13 µM | 13.7 | 39.7 | 0.593 µM | 15.3 |  | 
23 | COc1ccc(/C=C/C(=O)c2sc(-n3nc(-c4ccccc4)cc3-c3ccccc3)nc2C)cc1 | > 100 µM | > 100 |  |  | > 100 µM | > 100 | > 100 | > 100 | > 100 µM | > 100 |  |  | > 100 µM | > 100 µM |  |  |  | > 100 | 51.1 µM | > 100
24 | COC(=O)C=Cc1ccc2nncnc2c1 (mixture of isomers) |  | > 100 |  | > 100 |  | 42.6 |  |  |  |  |  | > 100 |  | 64.3 µM |  | > 100 |  | > 100 |  | > 100
25 | Cc1ccc(S(=O)(=O)N/N=C(/c2nc3ccc([N+](=O)[O-])cc3[nH]c2=O)C(O)c2ccc(C(O)/C(=N\NS(=O)(=O)c3ccc(C)cc3)c3nc4ccc([N+](=O)[O-])cc4[nH]c3=O)cc2)cc1 (stereo unspecified) |  | > 100 |  |  |  | > 100 |  | > 100 |  | > 100 |  | > 100 |  |  |  |  |  | > 100 |  | > 100
26 | CN(c1ccccc1)c1c(Cl)c(=O)oc2c1ccc1occc12 |  |  |  |  |  | > 100 |  | > 100 |  | > 100 |  | > 100 |  | > 100 µM |  |  |  | > 100 |  | > 100
27 | CC(=O)NNc1nc(C)c(C(=O)NNC(=O)C(=O)Nc2ccc(Cl)cc2Cl)s1 |  | > 100 |  |  |  | > 100 |  | > 100 |  |  |  | > 100 |  | > 100 µM |  |  |  | 98.2 |  | > 100
28 | CCc1nc(N)nc(N)c1-c1ccc(N2CCNCC2)cc1 |  | > 100 |  | > 100 |  | > 83.9 |  |  |  | > 100 |  | > 100 |  | > 100 µM |  | > 100 |  | > 100 |  | > 100
29 | CC1=C(C(=O)Nc2cc(F)c(F)cc2F)C(c2ccc([N+](=O)[O-])cc2)C(C(=O)Nc2cc(F)c(F)cc2F)=C(C)N1 |  | > 100 |  |  |  | > 100 |  | > 100 |  | > 100 |  | > 100 |  | > 100 µM |  |  |  | 70.6 |  | > 100
